# PubChem BioAssay AID1259334 (Broad Institute, 2017)
# The source made the active and inactive calls. No stated cut-off is given here; in the data, active means AC50 below about 11 µM.
# Test system: B cell line, TNFa signaling counterscreen reporter
# Assay: TNFa pathway inhibition counter-screen, B-lineage cells – dose response (AID 1259334);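 further: cells stimulated with TNFa after compound preincubation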
row,Compound,AC50
1,C[C@@H]1CN([C@@H](C)CO)C(=O)c2c(c3ccccc3n2C)-c2ccccc2CO[C@@H]1CN(C)C(=O)c1cc(Cl)cc(Cl)c1,> 20 µM (inactive)
2,CC(=O)OC1CCC2(C)C(CCC3C4CC=C(C(C)=O)C4(C)OC(=O)CC32)C1 (stereo unspecified),1.65 µM
3,Cc1cc(C)nc(Sc2ncnc(N)c2[N+](=O)[O-])n1,2.53 µM
4,O=C(COC(=O)c1ccccc1)c1ccc2c(c1)OCCO2,0.986 µM
5,C[C@H]1CN([C@@H](C)CO)C(=O)c2c(c3ccccc3n2C)-c2ccccc2CO[C@@H]1CN(C)C(=O)Nc1cccc(C(F)(F)F)c1,9.38 µM
6,CCCCCCCCCCCCCCCC[n+]1ccccc1,0.119 µM
7,O=C(C1CC1)N1C[C@@H]2N[C@H](C1)[C@@H]2c1ccc(-c2ccncc2)cc1,5 µM
8,N#C[C@H]1N[C@H](CO)[C@H]1c1ccc(C#CC2CCCC2)cc1,8.01 µM
9,C=C1C(=O)C23C(O)C1CCC2C12CCCC(C)(COC(C)=O)C1C(O)C3(O)OC2 (stereo unspecified),0.507 µM
10,O=C(Nc1ccccc1F)N1C[C@@H]2N[C@H](C1)C2c1ccc(/C=C/c2ccccc2)cc1 (stereo partly specified),1.39 µM
11,CC[C@@]1(O)C(=O)OCc2c1cc1n(c2=O)Cc2cc3c(CN(C)C)c(O)ccc3nc2-1,1.01 µM
12,COc1ccc(Cl)cc1NC(=O)Nc1cc(C)nc2ccccc12,> 20 µM (inactive)
13,COc1ccc(C(=O)/C=C/C(=O)N(CC(=O)NC2CCCCC2)Cc2ccc(F)cc2)c(O)c1,5.1 µM
14,Cc1ccc(S(=O)(=O)C=CS(=O)(=O)c2ccc(C)cc2)cc1,1.22 µM
15,COc1ccc(C#Cc2ccc([C@H]3[C@@H](CO)N4CCCCN(S(=O)(=O)c5cn(C)cn5)C[C@H]34)cc2)cc1,8.82 µM
16,C[C@@H]1CN([C@@H](C)CO)C(=O)c2c(c3ccccc3n2C)-c2ccccc2CO[C@H]1CN(C)C(=O)Nc1cccc(C(F)(F)F)c1,10.9 µM
17,N#Cc1c(Br)n(C2OC(CO)C(O)C2O)c2ncnc(N)c12 (stereo unspecified),1.16 µM
18,CC(C)(C)[S@](=O)N1Cc2cc(C(=O)NCC(F)(F)F)nc(-c3cccc(-c4cccc(F)c4)c3)c2[C@@H]1CCO,> 20 µM (inactive)
19,O=C(c1nnsc1S(=O)(=O)c1ccc(Cl)cc1)N1CCOCC1,2.07 µM
20,CC1CC(C)C(=O)C(C(O)CC2CC(=O)NC(=O)C2)C1 (stereo unspecified),0.115 µM
21,Oc1c(Cl)cc(Cl)c(Cl)c1Cc1c(O)c(Cl)cc(Cl)c1Cl,2.69 µM
22,COc1cc(C(C)C)c2c(c1)S(=O)(=O)N(COc1cc(=O)n3cccc(OCCN4CCCCC4)c3n1)C2=O,3.4 µM
23,O=C(CCN1CCC(c2ccccc2)C1)c1ccc2c(c1)OCCO2 (stereo unspecified),6.18 µM

row,Compound,AC50
1,CC(C)(C)OC(=O)CC(S(=O)(=O)c1ccccc1)S(=O)(=O)c1ccccc1,1.07 µM
2,N#CC(C#N)=NNc1ccc(OC(F)(F)F)cc1,7.15 µM
3,CC(C)Cc1ccc(C(C)CC2=CCC(CN(C)C)C2=O)cc1 (stereo unspecified),2.41 µM
4,N#C[C@@H]1[C@H](c2ccc(C#CC3CCCCC3)cc2)[C@@H](CO)N1S(=O)(=O)c1ccccc1,7.1 µM
5,CC(C)CC#Cc1ccc([C@@H]2[C@H]3CN(C(=O)Nc4ccccc4)CCCCN3[C@H]2CO)cc1,6.52 µM
6,O=S(=O)(/C(=C\c1ccc(C(F)(F)F)cc1)c1nc2ccccc2[nH]1)c1ccccc1,0.497 µM
7,O=C(Nc1ccc(C(F)(F)F)cc1)N1C[C@@H]2N[C@H](C1)C2c1ccc(-c2ccccc2)cc1 (stereo partly specified),3.28 µM
8,Oc1ccc2c(c1)OCC1(O)Cc3cc(O)c(O)cc3C21 (stereo unspecified),2.18 µM
9,O=C1NC2C(=CC(O)C(O)C2O)c2cc3c(c(O)c21)OCO3 (stereo unspecified),0.0423 µM
10,N#C[C@H]1[C@H](c2ccc(-c3cccc(F)c3)cc2)[C@H](CO)N1C(=O)NC1CCCC1,> 20 µM (inactive)
11,CC1(C)C(=O)C=C[C@@]2(C)C1C=C[C@]1(C)C2CC[C@@]2(C)[C@H](c3ccoc3)OC(=O)[C@H]3O[C@]321 (stereo partly specified),4.98 µM
12,C[C@@H]1CN([C@@H](C)CO)C(=O)c2c(c3ccccc3n2C)-c2ccccc2CO[C@@H]1CN(C)C(=O)Nc1ccccc1C(F)(F)F,7.57 µM
13,N#C[C@@H]1[C@H](c2ccc(C#CC3CCCCC3)cc2)[C@@H](CO)N1C(=O)Nc1ccc(F)cc1,> 20 µM (inactive)
14,COc1ccc(C#Cc2ccc([C@@H]3[C@H](CO)N4CCCCN(C(=O)Nc5cccc(F)c5)C[C@@H]34)cc2)cc1,4.57 µM
15,N#C[C@H]1[C@H](c2ccc(C#Cc3ccccc3F)cc2)[C@H](CO)N1C(=O)C1CC1,11.3 µM
16,COc1ccc(CNCCC(c2ccc(F)cc2)c2ccc(OC(C)C)cc2)cc1OC (stereo unspecified),3.5 µM
17,CNc1c2cccc(C)c2nc2c(C(=O)NCCN(C)C)cccc12,0.583 µM
18,Cc1cc(OCC(=O)OCC(=O)NCc2ccco2)ccc1Cl,> 20 µM (inactive)
19,C[C@@H]1CN([C@@H](C)CO)C(=O)c2c(c3ccccc3n2C)-c2ccccc2CO[C@@H]1CN(C)Cc1ccccc1C(F)(F)F,> 20 µM (inactive)
20,CCCC(=O)NC1=C(Cl)C(=O)c2ccccc2C1=O,0.712 µM
21,O=C(C#Cc1ccccc1)c1ccccc1,5.68 µM
22,CC(C)(C)c1cc(C=C(C#N)C#N)cc(C(C)(C)C)c1O,1.22 µM
23,COC(=O)c1nn(-c2ccc(-c3ccccc3)cc2)cc1O,8.92 µM
